Measurements from paper PMC9398908, “GLP-1-mediated delivery of tesaglitazar improves obesity and glucose metabolism in male mice” (Nature Metabolism, 2022).
“And” between values parts separate entries of the source, which are not always exact repeats. Equal values may be shown once.

What was measured:
[1] = target: T1, hGLP-1R (Homo sapiens, UniProt P43220); test: Ligand-induced cAMP production (CAMYEL BRET sensor) in hGLP-1R+ HEK293T cells; format: cell-based; settings: HEK293 cells transfected with human GLP-1R; dose response, Fig. 1b; in words
T1 construct: host or cells: HEK293T, transient transfection
Method: (§1) HEK293T cells (700,000 per well) were seeded in six-well plates and incubated to 70% confluency in DMEM (10% FBS, 1% Pen/Strep). Twenty-four hours following seeding, transient transfections were performed using Lipofectamine 2000 (catalogue no. 11668019, Invitrogen) according to the manufacturer’s protocol without including additional transformation carrier DNA.
Twenty-four hours following transfection, HEK293T cells or MIN6 cells were washed with PBS and resuspended in FluoroBrite phenol red-free complete media (catalogue no. A1896701, Life Technologies) containing 5% FBS and 2 mM of L-glutamine (catalogue no. 25030081, Life Technologies). 100,000 cells per well were plated into poly-D-lysine-coated (catalogue no. P6403, Sigma-Aldrich) 96-well white polystyrene LumiNunc plates (catalogue no. 10072151, Thermo Fisher Scientific). After 24 h, the media was replaced with PBS (catalogue no. 10010056, Gibco) containing 10 μM of coelenterazine-h (catalogue no. S2011, Promega) or 1:500 dilution of NanoGlo (catalogue no. N1110, Promega). BRET measurements were taken every 30 s–2 min using a PHERAstar FS multi-mode microplate reader. […] The resulting ligand-specific ratiometric BRET signals were normalized to vehicle producing the ‘ligand-induced BRET ratio’[37], followed by an additional normalization step to well-specific baseline readings.

[2] = test system: DIO mice; test: In vivo glucose-stimulated insulin secretion in DIO mice (Fig. 2i); parameters: species or system mouse; settings: Figure 2i, individual mice
[3] = target: T2, PPARγ2/RXR (Homo sapiens, UniProt P37231); test: RXR-Rluc8 / PPARγ2-YFP heterodimerization (BRET) in hGLP-1R(+) HEK293T cells; format: cell-based; settings: GLP-1R (+), 1μM
T2 construct: host or cells: HEK293T, with (A8) or without (A9) co-expressed hGLP-1R
T2 sequence (P37231 1-505): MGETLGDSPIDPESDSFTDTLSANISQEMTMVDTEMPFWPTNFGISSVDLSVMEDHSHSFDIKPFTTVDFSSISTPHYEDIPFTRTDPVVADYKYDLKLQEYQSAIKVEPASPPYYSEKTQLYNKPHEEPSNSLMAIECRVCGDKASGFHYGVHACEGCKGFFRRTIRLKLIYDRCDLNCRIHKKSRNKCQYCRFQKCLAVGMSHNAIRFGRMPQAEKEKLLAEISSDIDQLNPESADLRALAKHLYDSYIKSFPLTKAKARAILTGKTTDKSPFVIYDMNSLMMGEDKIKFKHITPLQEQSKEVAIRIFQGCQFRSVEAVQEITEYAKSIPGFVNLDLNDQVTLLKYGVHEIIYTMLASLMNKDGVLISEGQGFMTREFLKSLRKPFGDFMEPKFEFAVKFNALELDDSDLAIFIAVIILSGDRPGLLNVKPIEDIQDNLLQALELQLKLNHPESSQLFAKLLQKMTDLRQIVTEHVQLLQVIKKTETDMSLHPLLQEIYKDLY
T2 sequence (P19793 1-462 partner): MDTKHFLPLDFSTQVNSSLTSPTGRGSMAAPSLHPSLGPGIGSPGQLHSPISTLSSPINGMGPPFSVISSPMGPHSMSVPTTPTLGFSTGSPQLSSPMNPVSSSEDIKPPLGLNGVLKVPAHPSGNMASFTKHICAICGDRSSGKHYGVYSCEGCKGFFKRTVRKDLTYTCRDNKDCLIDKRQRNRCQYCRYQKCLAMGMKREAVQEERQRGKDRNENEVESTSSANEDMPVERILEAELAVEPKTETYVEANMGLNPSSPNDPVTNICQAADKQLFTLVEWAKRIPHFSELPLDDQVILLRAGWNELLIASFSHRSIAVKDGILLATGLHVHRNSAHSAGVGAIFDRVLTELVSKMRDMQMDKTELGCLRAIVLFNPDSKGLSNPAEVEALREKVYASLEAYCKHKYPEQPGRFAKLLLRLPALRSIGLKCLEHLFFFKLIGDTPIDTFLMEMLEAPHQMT
Method: as §1
Twenty-four hours following transfection, HEK293T cells or MIN6 cells were washed with PBS and resuspended in FluoroBrite phenol red-free complete media (catalogue no. A1896701, Life Technologies) containing 5% FBS and 2 mM of L-glutamine (catalogue no. 25030081, Life Technologies). 100,000 cells per well were plated into poly-D-lysine-coated (catalogue no. P6403, Sigma-Aldrich) 96-well white polystyrene LumiNunc plates (catalogue no. 10072151, Thermo Fisher Scientific). After 24 h, the media was replaced with PBS (catalogue no. 10010056, Gibco) containing 10 μM of coelenterazine-h (catalogue no. S2011, Promega) or 1:500 dilution of NanoGlo (catalogue no. N1110, Promega). BRET measurements were taken every 30 s–2 min using a PHERAstar FS multi-mode microplate reader. Baseline measurements were taken after an initial 5 min of incubation with coelenterazine-h or NanoGlo-containing PBS after which cells were then treated with either vehicle (PBS) or respective ligands. The resulting ligand-specific ratiometric BRET signals were normalized to vehicle producing the ‘ligand-induced BRET ratio’[37], followed by an additional normalization step to well-specific baseline readings. Ligand-induced measurements on the temporal scale is represented as the subsequent measurement after time point zero. Positive or negative incremental AUC (+iAUC/−iAUC) were calculated where noted. Each experiment was independently performed at least three times, each with at least three technical replicates for each group.
Untagged hGLP-1R was purchased from Sino Biological Inc. (catalogue no. HG13944-UT), hGLP-1R-GFP was a kind gift from D. Hodson (University of Birmingham), and hGLP-1R-Rluc8 was a kind gift from P. Sexton (Monash University, Melbourne, Australia). Gαs recruitment to the GLP-1R-GFP was quantified using mini-Gαs, a protein probe that translocates to ligand-bound Gαs-coupled G-protein coupled receptors. NES-Nluc-MiniGαs was a gift from K. Pfleger (Harry Perkins Institute of Medical Research, Nedlands, Western Australia, Australia). Intracellular cAMP was measured using the YFP-Epac-Rluc CAMYEL sensor[39]. hGLP-1R-RLUC8 internalization was quantified using the intracellular plasma membrane marker Venus-KRAS[40]. Venus-KRAS was a kind gift from K. Pfleger. GLP-1R-Rluc8 lysosomal colocalization was measured using Lamp1-mNeonGreen. Lamp1-mNeonGreen was a gift from D. Gadella (Addgene plasmid no. 98882). Time-dependent RXR/PPARγ heterodimerization was measured using RXR-Rluc8 and PPARγ2-YFP, both of which were kind gifts from V. Ollendorf[41].

T1 sequence (P43220 24-463): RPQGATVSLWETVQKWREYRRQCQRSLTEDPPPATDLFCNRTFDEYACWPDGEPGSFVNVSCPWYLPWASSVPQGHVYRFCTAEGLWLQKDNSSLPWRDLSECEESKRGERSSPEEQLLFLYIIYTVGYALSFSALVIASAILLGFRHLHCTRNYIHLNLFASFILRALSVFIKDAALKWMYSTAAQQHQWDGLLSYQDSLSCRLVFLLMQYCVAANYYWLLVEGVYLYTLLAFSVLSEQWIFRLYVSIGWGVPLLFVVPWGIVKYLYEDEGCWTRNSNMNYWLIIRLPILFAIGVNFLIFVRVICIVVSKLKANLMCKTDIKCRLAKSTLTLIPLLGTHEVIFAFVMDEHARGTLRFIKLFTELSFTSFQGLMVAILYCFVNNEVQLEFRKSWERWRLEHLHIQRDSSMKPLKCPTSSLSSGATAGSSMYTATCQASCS

cAMP production [1]: had no effect
RXR/PPARγ Heterodimerization (AUC), +iAUC ([3]; replicate 1): 81.74
RXR/PPARγ Heterodimerization (AUC), +iAUC ([3]; replicate 2): 115.10
RXR/PPARγ Heterodimerization (AUC), +iAUC ([3]; replicate 3): 84.31
RXR/PPARγ Heterodimerization (AUC), +iAUC ([3]; replicate 4): 42.82
RXR/PPARγ Heterodimerization (AUC), +iAUC ([3]; replicate 5): 35.86
RXR/PPARγ Heterodimerization (AUC), +iAUC ([3]; replicate 6): 49.17
RXR/PPARγ Heterodimerization (AUC), +iAUC ([3]; replicate 7): 59.85
RXR/PPARγ Heterodimerization (AUC), +iAUC ([3]; replicate 8): 106.60
SMILES: CCO[C@@H](Cc1ccc(OCCc2ccc(OS(C)(=O)=O)cc2)cc1)C(=O)O [tesaglitazar, (S)-2-ethoxy-3-(4-(4-((methylsulfonyl)oxy)phenethoxy)phenyl) propanoic acid]
GSIS [2]: 0.684 and 1.33 and 1.611 and 0.796 and 0.457 and 0.687 and 1.335 and 1.19
